# Data: patent US20100034762A1, “Novel enrichment methods for gallic acid esters including 1-O-galloy1-bata-D-glucose and mucic acid gallates medicaments, therapeutic applications and methods of treatment thereof” (priority 2008, published 2010)
# Assays:
# [1] = Oxygen Radical Absorbance Capacity (ORAC); conditions: Trolox equivalents
# [2] = DPPH scavenging
DPPH IC50 [2] [µg/mL],Compound,ORAC (μmol TE/gm) [1] [μmol TE/gm]
1.93,"O=C1O[C@H]([C@@H](O)CO)C(O)=C1O [Vitamin C, Ascorbic acid]",3400
0.32,"O=C(O)c1cc(O)c(O)c(O)c1 [Gallic acid, gallic acid]",6712
